Measured values reported in patent publication US11530458B2, “Methods of using multi-ligand metal complexes to perform oxidative catalytic pretreatment of lignocellulosic biomass” (Board of Trustees of Michigan State University, priority 2014, dated 2022).

Legend:
[1] = Catalytic AOP pretreatment of hybrid poplar with multi-ligand catalysts, then enzymatic hydrolysis (glucose conversion); parameters: species or system Populus nigra var. charkoviensis×caudina cv. NE-19; details: for Glucose (Glucose Conversions): hybrid poplar, 270 mM NaOH, 10% H2O2, 24 hrs 30° C.
Method: Enzymatic hydrolysis was performed on the solid poplar slurry at 50° C. in the same rotary shaker used for the extraction step. In preparation for hydrolysis, 20 μL of 72% (w/w) H2SO4 and 500 μL of 1 M sodium citrate buffer (pH 5) (prepared from sodium citrate and citric acid) were added to the solid poplar slurry to adjust the pH to 5 (optimum pH for the enzymes being used herein). Thereafter, 40 μL of 10 mM tetracycline (Sigma-Aldrich) stock solution was added to the solid poplar slurry to inhibit microbial growth. This step was followed by addition of a Cellic CTec2 and HTec2 (Novozymes A/S, Bagsværd, DK) enzyme cocktail at a loading of 30 mg protein/g glucan in the biomass prior to extraction and catalytic pretreatment, unless otherwise noted. The enzymatic reaction (50° C., 210 rpm, 72 hrs) was carried out at 5% solids concentration by adjusting the volume of the poplar slurry to 10 mL via the addition of deionized water.
Following enzymatic hydrolysis, the resulting solid and liquid phases were separated by centrifugation in same manner as in Example 2, to produce separated hydrolyzed solid and liquid phases. The amount of glucose and xylose released into the aqueous phase was quantified by High Performance Liquid Chromatography (HPLC) (Agilent 1260 Series equipped with an Aminex® HPX-87H column operating at 65° C., a mobile phase of 0.05 M H2SO4, and a flow rate of 0.6 mL per minute, and detection by refractive index). The yield of glucose and xylose released was defined as the amount of solubilized monosaccharide divided by the total sugar content of the poplar biomass prior to incubation and catalytic pretreatment as determined by chemical composition analysis.
Hybrid poplar (0.5 g) (same source as Example 2) was catalytically pretreated using 1 mM of a stock solution of multi-ligand copper complex, namely copper (II) 2,2′ bipyridine ethylenediamine (Cu(bpy)en) containing 40 mM copper sulphate pentahydrate, 40 mM bipyridine and 40 mM ethylenediamine in deionized water, together with 270 mM NaOH and 10% H2O2 loading (w/w) on biomass in a total 5 mL volume made with deionized water. Other components of the pretreatment catalyst include tetraacetylethylenediamine (TAED), ethylenediaminetetraacetic acid (EDTA), manganese sulfate, and magnesium sulfate. The catalytic pretreatment was allowed to proceed for approximately 24 hrs at 30° C.
Thereafter, the resulting poplar slurry was pH adjusted to 5 and hydrolyzed according to the process described in Example 3. Following enzymatic hydrolysis, the solid and liquid phases were separated by centrifugation as described in Example 3.

[2] = Catalytic AOP pretreatment of alkali-extracted switchgrass, then enzymatic hydrolysis (glucose yield); parameters: species or system Panicum virgatum; details: 24 hr AOP pretreatment of AESG, catalyst concentration per table
Method: Screening of various metal ligand complexes (hereinafter “catalysts”) was performed via catalytic alkaline oxidative pretreatment (AOP) pretreatment of alkali-extracted switchgrass (AESG). To prepare AESG, 80 grams of untreated switchgrass (Panicum virgatum, cv. Cave-In-Rock, hammer milled to pass a 5-mm screen, and stored at a moisture content of approximately 5%) was soaked in an aqueous solution of 5 g/L NaOH at 80° C. for 2 hrs. The weight-to-volume (w/v) solids loading of switchgrass during alkaline extraction was 10% (e.g., 10 g of biomass in 100 mL NaOH solution). […] The washed solids was recovered as AESG and air-dried for over 7 days.
[Al(III)(3,5-^tBu2-salophen)Cl] [3,5-^tBu2-salophen=N,N′-bis(3,5-di-tert-butylsalicylidene)-1,2-phenylenediamine], [Zn(II)(BPPA)Cl]Cl [BPPA=N,N-bis(6-pivaloylamido-2-pyridylmethyl)-N-(2-pyridylmethyl)amine], and [NEt4][Fe(III)(bpb)Cl2]
To study the effect of catalytic AOP pretreatment on AESG, pretreatment was performed in a 100 g/L aqueous suspension of AESG in the presence of each catalyst. […] After 24 hrs of incubation at 30° C. without mixing, the pretreated switchgrass slurry was washed using deionized water to remove the alkaline phosphate buffer.
The enzymatic digestibility of AOP-pretreated switchgrass was estimated by the yield of glucose during the enzymatic hydrolysis of AOP pretreated AESG. The percentage yield was calculated on the basis of the glucan content in AESG prior to catalytic AOP pretreatment.
For enzymatic hydrolysis, 500 μL of 1 M Na-citrate buffer (pH 5) and 40 μL of 10 mM tetracycline (Sigma-Aldrich) were added to AOP-AESG that was not dried after catalytic AOP pretreatment. Accellerase 1500 (42 FPU/mL; Danisco-Genencor, Palo Alto, Calif.) was added at 50 mg protein per gram of glucan in AESG. The total volume of the mixture (solid and liquid) was adjusted with deionized water to reach a 5% (w/v) solids concentration, and the samples were incubated at 50° C. during hydrolysis.

[3] = catalyst concentration not given

Compound	Glucose yield of enzymatic hydrolysis (% of theoretical maximum) ([2]; pH 3, 24 hrs hydrolysis)	Glucose yield of enzymatic hydrolysis (% of theoretical maximum) ([2]; pH 3, 72 hrs hydrolysis)	Glucose yield of enzymatic hydrolysis (% of theoretical maximum) ([2]; pH 11, 24 hrs hydrolysis)	Glucose yield of enzymatic hydrolysis (% of theoretical maximum) ([2]; pH 11, 72 hrs hydrolysis)	Glucose yield of enzymatic hydrolysis (% of theoretical maximum) ([2]; pH 10, 24 hrs hydrolysis)	other results
NCCN.[Cu+2].c1ccc(-c2ccccn2)nc1 [Cu(bpy)en, copper (II) 2,2′ bipyridine ethylenediamine]	–	–	–	–	–	Glucose (Glucose Conversions) ([1]; catalyst 1 mM): 55.00; Glucose (Glucose Conversions) ([1]; catalyst 2 mM): 48.15; Glucose yields compared to other catalyst systems ([1]; in words): higher glucose yields compared to other catalyst systems tested
O=S(=O)([O-])[O-].[Cu+2] [CuSO4, copper sulfate]	–	–	–	–	–	Glucose (Glucose Conversions) [1, 3]: 40.62
Fc1c(F)c(F)c(-c2c3nc(c(-c4c(F)c(F)c(F)c(F)c4F)c4ccc([nH]4)c(-c4c(F)c(F)c(F)c(F)c4F)c4nc(c(-c5c(F)c(F)c(F)c(F)c5F)c5ccc2[nH]5)C=C4)C=C3)c(F)c1F.[Fe+3] [Fe(III)-tetrakis-pentafluorophenyl)-porphyrin]	29.18 ± 0.33 % of theoretical maximum	35.38 ± 0.43 % of theoretical maximum	35.37 ± 0.45 % of theoretical maximum	40.25 ± 0.19 % of theoretical maximum	–	–
C1=Cc2nc1c(-c1ccccc1)c1ccc([nH]1)c(-c1ccccc1)c1nc(c(-c3ccccc3)c3ccc([nH]3)c2-c2ccccc2)C=C1.[Fe+3] [Fe(III)-tetraphenylporphyrin]	31.55 ± 1.6 % of theoretical maximum	42.13 ± 1.89 % of theoretical maximum	36.98 ± 1.3 % of theoretical maximum	42.14 ± 0.63 % of theoretical maximum	–	–
O=S(=O)([O-])[O-].[Mg+2] [MgSO4, magnesium sulfate]	–	–	–	–	–	Glucose (Glucose Conversions) [1, 3]: 25.17
CC(C)(C)c1cc(C=Nc2ccccc2N=Cc2cc(C(C)(C)C)cc(C(C)(C)C)c2[O-])c([O-])c(C(C)(C)C)c1.[Al+3].[Cl-] [[Al(III)(3,5-^tBu2-salophen)Cl]]	–	–	29.80 ± 0.25 % of theoretical maximum	–	28.90 ± 0.17 % of theoretical maximum	Glucose yield of enzymatic hydrolysis (% of theoretical maximum) ([2]; pH 13, 24 hrs hydrolysis): 34.19 ± 0.41 % of theoretical maximum
CC[N+](CC)(CC)CC.O=C([N-]c1ccccc1[N-]C(=O)c1ccccn1)c1ccccn1.[Cl-].[Cl-].[Fe+3] [[NEt4][Fe(III)(bpb)Cl2]]	–	–	27.44 ± 1.54 % of theoretical maximum	31.54 ± 0.23 % of theoretical maximum	25.54 ± 0.21 % of theoretical maximum	Glucose yield of enzymatic hydrolysis (% of theoretical maximum) ([2]; pH 9, 24 hrs hydrolysis): 27.07 ± 0.6 % of theoretical maximum; Glucose yield of enzymatic hydrolysis (% of theoretical maximum) ([2]; pH 9, 72 hrs hydrolysis): 34.27 ± 0.21 % of theoretical maximum; Glucose yield of enzymatic hydrolysis (% of theoretical maximum) ([2]; pH 10, 72 hrs hydrolysis): 31.97 ± 0.13 % of theoretical maximum
CC(C)(C)C(=O)Nc1cccc(CN(Cc2ccccn2)Cc2cccc(NC(=O)C(C)(C)C)n2)n1.[Cl-].[Cl-].[Zn+2] [[Zn^II(BPPA)Cl]Cl, [Zn(II)(BPPA)Cl]Cl]	–	–	27.33 ± 0.62 % of theoretical maximum	–	26.43 ± 0.31 % of theoretical maximum	Glucose yield of enzymatic hydrolysis (% of theoretical maximum) ([2]; pH 13, 24 hrs hydrolysis): 33.36 ± 0.3 % of theoretical maximum
Fe(III)-phthalocyanine	30.91 ± 0.24 % of theoretical maximum	36.80 ± 2.84 % of theoretical maximum	34.21 ± 0.23 % of theoretical maximum	38.75 ± 1.52 % of theoretical maximum	–	–
